According to US3954726A, “Double salts of S-adenosil-L-methionine” (Bioresearch Limited, priority 1973, dated 1976):
Counter-ions that a name gives are not always drawn. Like-named read-outs stand apart in the source and are kept apart here.

Columns and labels:
[1] = Hepatic phospholipids in rats after intoxication with CCl4; type: in vivo, rat; details: for Total phospholipids: average ± E.S. of 10 values
From the text: This was confirmed by successive pharmacological tests. […] Hepatic phospholipids in rats after intoxication with CCl4 and treatment with SAM.

[2] = Acute toxicity (DL50) in the mouse; details: in vivo
From the text: In particular, the DL50 in the mouse is greater than 6 g/kg/os and 2.5 g/kg/i.p.

[3] = Toxicity, overall statement; details: in vivo
[4] = dry state
From the text: (§3) The figures refer to the percentage of SAM residue after the times indicated:

[5] = Clinical: depressive forms (tests of Hamilton and Wittenberg); type: in vivo, human; details: 20-50 mg 3-4 times per day, 5-15 days, no other therapy
[6] = Hepatic steatosis in rats (Handler diet, acute alcoholic intoxication, carbon tetrachloride, bromobenzene); type: in vivo, rat
From the text: This was confirmed by successive pharmacological tests.

[7] = Hepatic cholesterol degeneration in the rat (Ridout diet); type: in vivo; details: 3 weeks; for Fresh liver weight: cholesterol diet
Protocol: In studying the hepatoprotective activity we have used an experimental device which produces in the rat the so-called hepatic cholesterol degeneration (Ridout and Coll., Biochem. J. 52, 99, 1952).
In this method, by means of a suitable diet, a conspicuous increase in the total hepatic fats and hepatic cholesterol are obtained in the animals. The substances which act in the lipidic metabolism reduce or annul this increase.
The animals were divided into six groups. The first group was administered with a diet which was varied at will. The second group was administered with the basic diet of Ridout (20 g per rat per day); the other groups were administered with the same diet in the same doses but enriched with cholesterol to the extent of 0.2 g/rat/day. The treatment lasted 3 weeks.
The groups 4,5,6 were administered with SAM in the following doses: 1,2,5 mg/kg/i.p. per day.
At the end of 3 weeks all the animals were killed, the livers were withdrawn and the total fats (Best and Coll., Biochem. J. 40, 368, […]) and cholesterol (Sperry and Brand, J. Biol. Chem. 150, 315, 1943) were determined.

[8] = Edema by egg white (acute inflammation); type: in vivo; details: orally 20-100 mg/kg and parenterally 10-20 mg/kg
From the text: (§1) Ot the various tests we shall mention the most classic, namely the edema by carragenine and by egg white as a test for acute inflammation; and granuloma by cotton […] arthritis by adjuvant as a test for chronic inflammation. […] The analgesia tests were in the form of the hot plate tests and stretching by acetic acid, and the Randal and Drlitto tests in the rat.

[9] = Arthritis by adjuvant (chronic inflammation); type: in vivo; details: orally 20-100 mg/kg and parenterally 10-20 mg/kg
From the text: as §1

rats = details: rat, in vivo
[10] = Clinical: arteriosclerosis, hypoxydotic states, post-apoplectic syndromes; type: in vivo, human
[11] = type: in vivo, human
[12] = Clinical: disturbances of the sleeping-waking rhythm; type: in vivo, human; details: 10-30 mg orally, insomnia
physchem [13] = type: physicochemical
[14] = Clinical: metabolism of lipids (hepatosteatosis, hyperdislipidemia); type: in vivo, human
From the text: Following the information gained from the pharmacological tests, the clinical tests were orientated on morbid affections in which the following appear primitively or secondarily altered: […]

rabbit [15] = assay: Local tolerability of intermuscular and intravenous injection; type: in vivo
[16] = mouse, in vivo
Protocol: (§2) Sam^+.hso4^-.h2 so4 .2 ch3 c6 h4 so3 h and/or SAM^+.HSO4^-.H2 SO4.CH3 C6 H4 SO3 H. In order to indicatively determine how SAM is distributed in the tissues, S-Adenosilmethionine (Methyl C^14) was prepared. The distribution of this product in rats was studied by administering a dose of 10 mg/kg/e.v. equal to 24 μci of radioactive product. The specific activity of the product was 58 mCi/m moles. Parallel to this, an autoradiographic study was made on the mouse.

[17] = Clinical: antalgic activity in neurological frameworks and cephalalgia; type: in vivo, human
Protocol: The antalgic activity of SAM was also tested in different subjects with different neurological frameworks: neuritis, polyneuritis, anthralgia, sciatica, radiocolitis, torticollis.

[18] = Hexobarbital sleeping time in mice; type: in vivo, mouse
Protocol: A further aspect considered by us was the possible action of SAM on the sleeping time by barbiturates. For this purpose an experiment was made in which groups of mice received hexobarbital in a dose of 80 mg/kg/i.p. in accordance with the method of Holten and Larsen (Acta Pharmacol. […] (table).

[19] = Stretching by acetic acid (analgesia); details: rat, in vivo
From the text: as §1

[20] = Granuloma by cotton peelets (chronic inflammation); type: in vivo; details: orally 20-100 mg/kg and parenterally 10-20 mg/kg
From the text: as §1

[21] = Clinical: Parkinsons disease and Parkinsonisms, in association with Levodopa; type: in vivo, human
rabbits = details: rabbit, in vivo
[22] = Hot plate test (analgesia); details: rat, in vivo
From the text: as §1

man = assay: Tolerability in young volunteer healthy subjects (pressure, pulse, respiration, ECG, hemopoietic, hepatic and renal); type: in vivo
[23] = Clinical: hypoprotidemias, disprotidemias, hepatopathias, cyrrotic states, malabsorption; type: in vivo, human; details: 20-200 mg per day
Protocol: 2. Hundreds of subjects were treated clinically affected with: secondary hypoprotidemias and disprotidemias; persistent and aggressive cronic hepatopathias; precyrrotic and cyrrotic states; malabsorption syndromes, protide dispersing syndromes.

physchem [24] = details: dry state, percentage of SAM residue
From the text: as §3

[25] = Edema by carragenine (acute inflammation); type: in vivo; details: orally 20-100 mg/kg and parenterally 10-20 mg/kg
From the text: as §1

rabbit [26] = details: in vivo, 40 mg/kg
cat = details: in vivo, 40 mg/kg
[27] = rat, in vivo, 10 mg/kg
Protocol: as §2
Distribution of SAM in some rat tissues.
The values are expressed as μgr/gr.

[28] = Randal and Drlitto test (analgesia); type: in vivo; details: rat
From the text: as §1

[29] = Stability with time at 45°C, dry state (percentage of SAM residue); details: same conditions as Table 1
From the text: as §3

[30] = hyperdislipidemia in the uncompensated stage
[31] = intermuscular, intravenous or oral

C[S+](CC[C@H](N)C(=O)[O-])C[C@H]1O[C@@H](n2cnc3c(N)ncnc32)[C@H](O)[C@@H]1O (stereo partly drawn) [Ad-Met, reference compound]
Total phospholipids ([1]; CCl4 + Ad-Met 15 mg/kg/i.p.): 19.9 ± 0.92 mg/g

C[S+](CC[C@H](N)C(=O)O)C[C@H]1O[C@@H](n2cnc3c(N)ncnc32)[C@H](O)[C@@H]1O (stereo partly drawn) [SAM salt]
LD50 ([2]; ip): > 2500 mg/kg | LD50 ([2]; po, os): > 6000 mg/kg | toxicity [3]: absolutely free from acute toxicity, chronic toxicity, local intolerance or secondary effects

C[S+](CC[C@H](N)C(=O)O)C[C@H]1O[C@@H](n2cnc3c(N)ncnc32)[C@H](O)[C@@H]1O (stereo partly drawn) [Sulphate]
percentage of SAM residue ([4]; 720 h): 50% | percentage of SAM residue ([4]; 1440 h): 5%

C[S+](CC[C@H](N)C(=O)O)C[C@H]1O[C@@H](n2cnc3c(N)ncnc32)[C@H](O)[C@@H]1O (stereo partly drawn) [SAM, SAM disulphate di-p-toluenesulphonate]
remission of the main parameters for the diagnosis of depressive forms [5]: significant remission | accumulation of lipids at the hepatocite level [6]: significantly reduced the accumulation of lipids | protection from hepatic cholesterol degeneration ([7]; 5 mg/kg): completely protected | protection from hepatic cholesterol degeneration ([7]; 1-2 mg/kg/i.p.): poorly protected | Fresh liver weight ([7]; Batch IV, SAM 1 mg/kg/i.p. per day): 17 g | Fresh liver weight ([7]; Batch V, SAM 2 mg/kg/i.p. per day): 16 g | Fresh liver weight ([7]; Batch VI, SAM 5 mg/kg/i.p. per day): 16 g | antiinflammatory activity, edema by egg white [8]: active | Total phospholipids ([1]; CCl4 + SAM 15 mg/kg/i.p.): 27.20 ± 1.25 mg/g | Total phospholipids ([1]; CCl4 + SAM 150 mg/kg/i.p.): 20.87 ± 0.42 mg/g | levels of phospholipids reduced after intoxication with CCl4 ([1]; rats, CCl4): favours the restoration of normal levels of phospholipids | antiinflammatory activity, arthritis by adjuvant [9]: active | tetratogenic actions or malformations (rats): no tetratogenic actions were encountered or any malformations in the embryons or terminal feti | recovery of functions in clear hypoxydotic states ([10]; hypoxydotic states): very quick and statistically significant | symptomatology of arteriosclerosis ([10]; intramuscular, intravenous or phleboclysis, 20-40 mg 3-4 times per day): very favourable modification of the sumptomatology | improvement of the clinical framework in post-apoplectic syndromes ([10]; post-apoplectic syndromes): greater rapidity was found in the improvement of the clinical framework | activity in osteoarthritic forms ([11]; 30 mg twice a day i.m. or i.v., and 30-50 mg orally 4 times per day): active in all osteoarthritic forms treated | muscular spasm, limitation of movement, localised pain, rigidity ([11]; after 7 days of treatment, versus placebo): influenced in a statistically significant manner | therapeutic efficiency compared with indomethacin ([11]; double blind study): equal to indomethacin | concealed blood in the feces ([11]; human, in vivo): never showed any modification | gastric pyrosis ([11]; human, in vivo): No case | altered sleeping-waking ratios [12]: considerably improve | hygroscopicity (physchem [13]; crystalline salt): not very hygroscopic | solubility (physchem [13]; water): > 200 mg/mL | hypocholesterolemising and hypolipemising action ([14]; about 20-30 mg administered 2-3 times per day): proportional to the dose | hepatic lipids in hepatosteatosis ([14]; bioptic examination, even after 60 days from the end of treatment): rapid fall in the hepatic lipids | altered β/α lipoproteic ratios [14, 30]: normalises the altered β/α lipoproteic ratios | total cholesterolemia and hypertriglyceridemia [14, 30]: marked fall | local tolerability (rabbit [15]; intermuscular injection, repeated over 180 days): excellent | local tolerability (rabbit [15]; intravenous, marginal vein of the auricular pavillon, rabbit): excellent | distribution to the tissues [16]: distributed very rapidly to all the tissues | antalgic effect in neurological frameworks ([17]; 15 mg twice a day intermuscular or 30-50 mg 3-4 times per day orally): available and efficient from the first day of administration | recurring and resistant cephalalgia ([17]; orally in masticable tablets): Analogous results | percentage of SAM residue ([4]; 720 h): 100.1% | percentage of SAM residue ([4]; 1440 h): 99.9% | prolonging the sleeping time induced by hexobarbital ([18]; 10 mg/kg/i.p.): active in prolonging the sleeping time | Sleeping time ([18]; SAM 10 mg/kg/i.p., hexobarbital 80 mg/kg/i.p.): 41.2 ± 5.8 min | analgesic activity, stretching by acetic acid [19]: active | antiinflammatory activity, granuloma by cotton peelets [20]: active | Parkinson tremor ([21]; 10-40 mg per day with Levodopa): favourable modifications | akinesia and rigidity ([21]; 10-40 mg per day with Levodopa, versus Levodopa only): statistically more significant improvement | Levodopa side effects ([21]; 10-40 mg per day with Levodopa, nausea, vomit, inappetite, hypotension, asthenia, cephalea, hypersudoration, insomnia): significantly blocks | Levodopa-dependent psychic disturbances ([21]; with Levodopa): distinctly improves | tetratogenic actions or malformations (rabbits): no tetratogenic actions were encountered or any malformations in the embryons or terminal feti | analgesic activity, hot plate [22]: active | electrocardiograph trace (PQ interval, ST section, extrasistol) (man; 30" to 20' from administration): does not show any variations | hemopoietic apparatus, hepatic and renal operation (man; man): no variations which were statistically significant from normal | minimum and maximum pressure, pulse and respiratory frequency (man; rapid intravenous or phleboclysis, 10-300 mg, 1 minute to 24 hours): does not show any variation from normal values | subjective symptomology and general objective conditions [23]: often very important improvement | tests of hepatic functionality [23]: normalizing of all the tests of hepatic functionality | albumin amount [23, 31]: an increase in the albumin amount | altered percentage ratios between the electrophoretic fractions of the serum [23, 31]: tendency to normalise | total protidemia [23, 31]: statistically significant increase | remaining at 2880 h (physchem [24]): 100% | remaining at 4320 h (physchem [24]): 100% | antiinflammatory activity, edema by carragenine [25]: active | change in carotid pressure, cardiac and respiratory frequency or electrocardiac trace (rabbit [26]): does not cause any change | change in carotid pressure, cardiac and respiratory frequency or electrocardiac trace (cat): does not cause any change | distribution to the tissues [27]: distributed very rapidly to all the tissues | analgesic activity, Randal and Drlitto test [28]: active

N[C@@H](Cc1ccc(O)c(O)c1)C(=O)O [Levodopa, reference compound]
Parkinson tremor ([21]; Levodopa alone): cannot be modified

C[S+](CC[C@H](N)C(=O)O)C[C@H]1O[C@@H](n2cnc3c(N)ncnc32)[C@H](O)[C@@H]1O.Cc1ccc(S(=O)(=O)O)cc1.O=S(=O)(O)O.O=S(=O)([O-])O (stereo partly drawn) [di-sulphate mono-p.toluenesulphonate]
stability values compared with di-sulphate di-p.toluenesulphonate [29]: completely equivalent

C[S+](CC[C@H](N)C(=O)O)C[C@H]1O[C@@H](n2cnc3c(N)ncnc32)[C@H](O)[C@@H]1O (stereo partly drawn) [Chloride]
percentage of SAM residue ([4]; 720 h): 20%
